# Experimental data from patent US20250049972A1, “METHOD OF DETECTING PROSTATE CANCER IN A HUMAN SUBJECT USING A Cu 64 PSMA I&T INJECTION” (Curium US LLC, priority 2023, published 2025).
# Tested on: prostate cancer lesions
# Experiment: Phase 2 PET/CT imaging: CLR, CDR and per patient sensitivity/specificity vs Composite Reference Standard, 3 blinded readers
# Format: in vivo, human
# Conditions: for Average Patient CDR: Average Correct Detection Rate (Standard Deviation) / Correct Localization Rate, region level / Number of Lesions Correctly Identified: IME Population; for Average Patient CDR: Average Correct Detection Rate (Standard Deviation) / Correct Localization Rate, region level: Phase 2; for Correct Localization Rate (region level CLR) / Number of Segments Correctly Identified / Pa Patient Specificity: Correct Patient Detection Rate / Pet Patient Sensitivity: Correct Patient Detection Rate: ITI Population; for Correct Localization Rate (region level CLR): 7-9 mCi; for Number of Lesions Correctly Identified: of 30 lesions truth; for Number of Segments Correctly Identified: of 30 segments truth
# Experimental: A study was conducted to evaluate the use of Cu-64 PSMA I&T injection in imaging human patients with recurrent metastatic prostate cancer. The primary objectives were to determine efficacy on region and patient level and to assess safety for use with humans. The secondary objective was to assess image quality or AIQ using CLR and CDR. The study had two co-primary endpoints. First, region-level CLR defined as the percentage of regions containing at least one true PET positive lesion, with exactly localized correspondence between PET/CT imaging and the Composite Reference Standard regardless of any co-existent false positive findings, within the same region, out of all regions containing at least one PET positive finding. Second, patient-level CDR defined as the percentage of patients who have at least one true PET positive lesion, with exactly localized correspondence between PET imaging and the Composite Reference Standard, regardless of any co-existent false positive findings, out of all patients who are scanned. Both endpoints were measured for 1 and 4 hours post injection using PET scans. The study was powered to detect a CLR (detection rate) of greater than 60%. A sample size of 26 patients has an 80% power of detecting a true sensitivity of 85%. Key inclusion criteria included histologically proven prostate adenocarcinoma, prior radical prostatectomy, radiation therapy with curative intent, disease recurrence based on defined rise in PSA, and at least one extra prostatic site of disease suspected based on prior imaging or diagnosed by biopsy. Patients were administered 7-9 mCi Cu-64 PSMA I&T injection and then PET and/or CT images were acquired for all patients starting at approximately […] and 4 hours±30 minutes post Cu-64 PSMA I&T injection. Indeed, the images were collected from an approximate range of 45 minutes to 4 hours and 30 minutes post injection for all patients. The PET and CT images were interpreted independently by three readers blinded to all patient information. Each patient study was assessed and scored for the detection of prostate cancer. Specifically, each reader categorized images as “Disease” or “No Disease” based only on tumor uptake of Cu-64 PSMA-I&T in each of the five regions: (1) prostate bed or prostate gland, (2) lymph nodes (pelvic), (3) lymph nodes (extra pelvic), (4) bone, and (5) viscera/soft tissue. Analysis of the reads were used for determination of the CLR and CDR by comparison to the Composite Reference Standard. The Composite Reference Standard was defined as local histopathology obtained within 60 days before or following Cu-64 PSMA I&T PET/CT, or, if histopathology was not available, anatomical correlation of conventional image findings (e.g., targeted MRI or CT or any FDA-approved PET PSMA agent) obtained within 60 days before or following Cu-64 PSMA I&T PET/CT. A statistical threshold (with a lower bound of the 95% confidence interval) of 60% was prespecified for both CLR and CDR endpoints. The Phase 2 portion of the study included a separate group of 26 patients with biochemical recurrent PC. The dose for the Phase 2 portion of the study was 9 mCi with an acceptable range of 7 to 9 mCi. PET/CT images were acquired for all patients at 1 hour (±15 minutes) and 4 hours (±0.5 hours) post injection. The PET/CT images were interpreted independently by 3 readers blinded to all patient information. Each patient was assessed and scored for the detection of prostate cancer lesions. Specifically, each reader categorized images as “Disease” or “No Disease” based only on tumor uptake of copper Cu-64 PSMA I&T in each of 5 regions: (1) prostate bed or prostate gland, (2) lymph nodes (pelvic), (3) lymph nodes (extra pelvic), (4) bone, and (5) viscera/soft tissue. Analysis of the reads was used for determination of the CLR and CDR for 1 hour and 4 hours post-injection imaging of copper Cu-64 PSMA I&T PET/CT by comparison to a composite reference standard collected for each enrolled patient. […]
# [1] = all 3 readers at both 1 and 4 hours
smiles,measurement,setting,value
"O=C(O)CC[C@H](NC(=O)N[C@@H](CCCCNC(=O)CCCCCCC(=O)NCCCC[C@@H](NC(=O)[C@@H](Cc1ccccc1)NC(=O)[C@@H](Cc1ccc(O)c(I)c1)NC(=O)CC[C@H](C(=O)O)N1CCN(CC(=O)O)CCN(CC(=O)O)CCN(CC(=O)O)CC1)C(=O)O)C(=O)O)C(=O)O [Cu-64 PSMA I&T, 64 Cu-(3S, 7S, 26R, 29R, 32R, 37R)-29-benzyl-32(4-hydroxy-3-iodobenzyl)-5, 13, 20, 28, 31, 34-hexaoxo-37-(4,7,10-tris(carboxymethyl)-1,4,7, 10-tetraazacyclododecan-1-yl)-4,6, 12, 21, 27, 30, 33-heptaazaheptatriacontane-1,3,7, 26, 37-pentacarboxylic acid, metal not drawn]",Average Patient CDR: Average Correct Detection Rate (Standard Deviation),"READER 1, 1 Hour Image",84.21% (33.552%)
same,"Correct Localization Rate, region level","READER 1, 1 Hour Image",86.67%
same,Correct Localization Rate (region level CLR),"READER 1, 1 Hour Image",86.67%
same,Number of Lesions Correctly Identified,"READER 1, 1 Hour Image",26
same,Number of Segments Correctly Identified,"READER 1, 1 Hour Image",26
same,Pa Patient Specificity: Correct Patient Detection Rate,"READER 1, 1 Hour image",100.00%
same,Pet Patient Sensitivity: Correct Patient Detection Rate,"READER 1, 1 Hour image",100.00%
same,Average Patient CDR: Average Correct Detection Rate (Standard Deviation),"READER 1, 4 Hour Image",84.21% (33.552%)
same,"Correct Localization Rate, region level","READER 1, 4 Hour Image",86.67%
same,Pa Patient Specificity: Correct Patient Detection Rate,"READER 1, 4 Hour Image",100.00%
same,Pet Patient Sensitivity: Correct Patient Detection Rate,"READER 1, 4 Hour Image",100.00%
same,Correct Localization Rate (region level CLR),"READER 1, 4 Hour Image",86.67%
same,Number of Lesions Correctly Identified,"READER 1, 4 Hour Image",26
same,Number of Segments Correctly Identified,"READER 1, 4 Hour Image",26
same,Average Patient CDR: Average Correct Detection Rate (Standard Deviation),"READER 2, 1 Hour Image",77.19% (38.172%)
same,"Correct Localization Rate, region level","READER 2, 1 Hour Image",76.7%
same,Pa Patient Specificity: Correct Patient Detection Rate,"READER 2, 1 Hour Image",100.00%
same,Pet Patient Sensitivity: Correct Patient Detection Rate,"READER 2, 1 Hour Image",100.00%
same,Correct Localization Rate (region level CLR),"READER 2, 1 Hour Image",76.67%
same,Number of Lesions Correctly Identified,"READER 2, 1 Hour Image",23
same,Number of Segments Correctly Identified,"READER 2, 1 Hour Image",26
same,Average Patient CDR: Average Correct Detection Rate (Standard Deviation),"READER 2, 4 Hour Image",79.82% (37.916%)
same,"Correct Localization Rate, region level","READER 2, 4 Hour Image",80.00%
same,Pa Patient Specificity: Correct Patient Detection Rate,"READER 2, 4 Hour Image",100.00%
same,Pet Patient Sensitivity: Correct Patient Detection Rate,"READER 2, 4 Hour Image",100.00%
same,Correct Localization Rate (region level CLR),"READER 2, 4 Hour Image",80.00%
same,Number of Lesions Correctly Identified,"READER 2, 4 Hour Image",24
same,Number of Segments Correctly Identified,"READER 2, 4 Hour Image",24
same,Average Patient CDR: Average Correct Detection Rate (Standard Deviation),"READER 3, 1 Hour Image",80.70% (35.252%)
same,"Correct Localization Rate, region level","READER 3, 1 Hour Image",80.110%
same,Pa Patient Specificity: Correct Patient Detection Rate,"READER 3, 1 Hour Image",100.00%
same,Pet Patient Sensitivity: Correct Patient Detection Rate,"READER 3, 1 Hour Image",100.00%
same,Correct Localization Rate (region level CLR),"READER 3, 1 Hour Image",80.00%
same,Number of Lesions Correctly Identified,"READER 3, 1 Hour Image",24
same,Number of Segments Correctly Identified,"READER 3, 1 Hour Image",24
same,Average Patient CDR: Average Correct Detection Rate (Standard Deviation),"READER 3, 4 Hour Image",80.70% (35.252%)
same,"Correct Localization Rate, region level","READER 3, 4 Hour Image",80.00%
same,Pa Patient Specificity: Correct Patient Detection Rate,"READER 3, 4 Hour Image",100%
same,Pet Patient Sensitivity: Correct Patient Detection Rate,"READER 3, 4 Hour Image",100.00%
same,Correct Localization Rate (region level CLR),"READER 3, 4 Hour Image",80.00%
same,Number of Lesions Correctly Identified,"READER 3, 4 Hour Image",24
same,Number of Segments Correctly Identified,"READER 3, 4 Hour Image",24
same,patient level CDR vs prespecified threshold,[1],> 60%
same,region level CLR vs prespecified threshold,[1],> 60%
same,correct patient detection rate (per patient sensitivity and specificity),"all patients, both 1 and 4 hour images",100.00%
same,patients with no lesions detected on the PET/CT scan,of 26 patients,7
same,patients with positive lesions on the PET/CT scan,of 26 patients,19
